{
  "source": "patent EP1647279A2",
  "about": "“Inhibition of apoptosis using interleukin-1beta-converting enzyme (ICE)/CED-3 family inhibitors” (priority 1996, dated 1998)",
  "format_in_all_cases": "cell-based",
  "key": {"granulocytes [1]": {"tested_on": "granulocytes", "assay": "Granulocyte survival in culture: analysis of hypodiploid nuclei by flow cytometry (propidium iodide)", "settings": "Figure 6; for pIC50: isolated granulocytes cultured at 37°C, nuclear hypodiploidy, propidium iodide stain via flow cytometry, read-out: IC50 (effects on granulocyte survival)", "protocol": "Whole blood anticoagulated with Acid Citrate Dextrose (ACD) with a ratio of 1:5 ACD to blood was collected (~100 ml).\nUsing polypropylene plastic ware, neutrophils are isolated as follows: 30 ml of the whole blood is added to 50 ml polypropylene centrifuge tubes containing 15 ml of 6% Dextran (in Saline). The blood is allowed to sediment for approximately 1 hour at room temperature.\nThe turbid straw colored layer harvested from the top of the cylinders into 50 ml conical polypropylene tubes. The blood cells were pelleted by centrifugation at 240 xg (Sorvall centrifuge at 1200 rpm) for 12 min. at 4°C with the brake on low.\nThe supernatant was aspirated and the pooled pellet resuspended in 40-50 ml cold PBS (w/o Ca, Mg), and centrifuged at 240 xg (Sorvall centrifuge at 1200 rpm) for 6 min. at 4°C with the brake on high.\nThe supernatant was aspirated and the pellet resuspended in 12 ml of cold cell culture grade water. The suspension was titriated gently with a pipet for 30 seconds then add 4 ml of cold 0.6 M KCl. (Brought up to 50 ml with cold PBS (w/o Ca, Mg)) and then centrifuged at 300 xg (Sorvall centrifuge at 1400 rpm) for 6 min. at 4°C with the brake on high.\nThe above was repeated one time.\nThe supernatant was aspirated and the cells resuspended in 2.5 ml cold PBS (w/o Ca, Mg). The cell suspension was layered over 3 ml Ficoll-Hypaque in a 15 ml polypropylene conical tube and centrifuged at 400 xg (Sorvall centrifuge at 1900 rpm) for 30 min. at 4°C with the brake on low.\nThe suspension aspirated was down to the neutrophil pellet. […]\nThe supernatant was aspirated and the neutrophil pellet resuspended in 4.0 ml cold PBS (w/o Ca, Mg) on ice. 10 µl of the neutrophil cell suspension was diluted with 990 µl of Trypan blue (1:100) and cells counted using a hemacytometer. The cell number and viability were determined. […]\n• (50 µg/ml propidium iodide (Sigma catalog#P4170); 0.1% Triton X-100; and 0.1% sodium citrate). • Neutrophils were pelleted at 4°C and the supernate aspirated. • Neutrophils were resuspended in hypotonic fluorochrome solution at a density of 5x10^6 cells/ml. Propidium iodide fluorescence of individual nuclei was evaluated in FL2 and measured on a logarithmic scale while gating on physical parameters in forward and side scatter to exlude cell debris.\nAt least 10,000 events per sample were collected and the results were evaluated relative to a non-apoptotic neutrophil population. […]\nThe present invention provides methods to enhance the ex vivo survival of neutrophils/granulocytes. […] The presence of hypodiploid DNA is a measure of apoptosis, and is assessed using a propidium iodide stain via flow cytometry. […]"}, "granulocytes [2]": {"tested_on": "granulocytes", "assay": "Respiratory burst in isolated neutrophils measured by chemiluminescence (opsonized zymosan, lucigenin)", "settings": "Figure 7", "protocol": "Whole blood anticoagulated with Acid Citrate Dextrose (ACD) with a ratio of 1:5 ACD to blood was collected (150 ml). Neutrophils were isolated as described above.\nOpsonized zymosan was prepared by suspending 125 mg zymosan particles in 25 ml pooled human serum (5 mg/ml) and incubating them for 20 minutes at 37°C. Centrifuge the suspension and resuspend the particles in 7 ml of PBS (18 mg/ml) and stored on ice until use (vortex prior to pipetting).\n50 ml of a 250 µM solution of Lucigenin (MW 510.5) was prepared by dissolving 6.4 mg of the solid in 50 ml of PBS-G (+ Ca, Mg). 10 µl of PBS-G (+ Ca, Mg) to the wells in a white 96 well plate.\n50 µl of the 250 µM Lucigenin solution was added to the wells in a white 96 well plate.\nCell preparations were obatined from cell culture (concentration at time zero= 5.0 x 10^6 cells/ml) with PBS-G (+ Ca, Mg).\n20 µl of the neutrophil suspension was suspended to the appropriate wells and the plate was incubated the plate at 37° C for three minutes. 10 µl of the opsonized zymosan was added to the wells.\nThe plate was read on the luminometer (Labsystems Luminoskan, Needham Heights, MA) for 14 min. at 37° C in the kinetic mode and record results using the software DeltaSoft.\nThe ability to undergo the respiratory burst is another measure of granulocyte viability. The respiratory burst is a physiological response of granulocytes to foreign stimuli such as bacteria. In this example, the method for inducing the respiratory burst utilized opsonized bacterial zymosan. The respiratory burst was measured via chemiluminescence."}, "[3]": {"tested_on": "granulocytes in whole blood", "assay": "Whole blood assay: survival of granulocytes by hypodiploid analysis via flow cytometry", "protocol": "The following reagents were used: • anti-CD32-FITC monoclonal antibody obtained from Pharmingen. • Lysing Solution (10X Stock: 89.9 g NH4Cl; • 10.0 g KHCO; • 0.37 g tetrasodium EDTA; • dissolve in 1 liter dH2O. Adjust to pH 7.3. Store at 4°C in a tightly closed bottle. • Dilute 1:10 with dH2O prior to use.) • (DPBS without calcium or magnesium obtained from Irivine Scientific. • 2% fetal bovine serum in DPBS stored at 4°C. • 50 µg/ml propidium iodide in DPBS sterile filtered and stored at 4°C.)\nThe following protocol was followed: • 200 µl blood sample/2.8 ml 1X lysis solution in a 15 ml polypropylene conical tube. • Cap and invert to mix. Leave at room temperature for 3-5 minutes. • Centrifuge in a table-top Sorvall at 1200 rpm for 5 minutes at 4°C. • Aspirate supernate. Resuspend pellet in 200 µl/sample 2% FBS/DPBS. Add 20 µl/sample anti-CD32-FITC. Incubate 30 minutes on ice in the dark. • Add 5 ml/sample DPBS. Centrifuge at 1000 rpm for 5 minutes at 4°C. • Aspirate supemate. Resuspend pellet in 1 ml/sample 2% FBS/DPBS. • Add 3 ml/sample ice-cold 95% EtOH dropwise while vortexing gently. • Incubate samples on ice in the dark for 30 minutes. • Centrifuge at 1000 rpm for 5 minutes at 4°C. • Resuspend each sample in 50 µl 5 mg/ml RN'ase. Transfer sample to 900 µl/sample • 50 µg/ml Propidium Iodide in 12x75 mm Falcon polystyrene tubes. • Incubate on ice for 30 minutes. • Analyze samples by flow cytometry (argon laser) for forward and side scatter and fluorescence.\nSurvival of granulocytes in whole blood was measured by hypodiploid analysis in a similar fashion to isolated granulocytes via flow cytometry. ICE/ced-3 inhibitors of the present invention maintained survival of granulocytes in whole blood for 96 hours at room temperature as indicated in the table below: Percentage of diploid granulocytes in whole blood"}, "[4]": {"settings": "after granulocyte culture for 72 hours"}, "[5]": {"settings": "granulocyte culture for 48 hours"}},
  "note": "pIC50: −log10 of the molar value. Residues, ends and D or L forms follow the SMILES beside them. *: point of attachment. Cbz = O=C(OCc1ccccc1)*; CH2F = FC*",
  "data": [
    {"smiles": "Cc1c(C(=O)N[C@H](C(=O)NC(CC(=O)O)C(=O)CF)C(C)C)n(C)c2ccccc12", "note": "(stereo partly shown) [Example 43, N-[(1,3-Dimethylindole-2-Carbonyl)Valinyl]-3-Amino-4-Oxo-5-Fluoropentanoic Acid]", "values": [
      {"measurement": "pIC50", "setting": "granulocytes [1]", "value": "> 5.30"},
      {"measurement": "respiratory burst", "setting": "granulocytes [2]; [4]", "value": "partially maintained"},
      {"measurement": "respiratory burst", "setting": "granulocytes [2]; [5]", "value": "substantially maintained"},
      {"measurement": "Percentage of diploid granulocytes in whole blood", "setting": "[3]; 96 hours at room temperature", "value": 91, "unit": "%"},
      {"measurement": "Percentage of diploid granulocytes in whole blood", "setting": "[3]; time zero, 0 min", "value": 96, "unit": "%"}
    ]},
    {"smiles": "O=C(O)CC(NC(=O)[C@@H]1Cc2cccc3c2N1C(=O)[C@@H](NC(=O)OCc1ccccc1)CC3)C(=O)CF", "note": "(relative stereo) [Example 106]", "values": [
      {"measurement": "pIC50", "setting": "granulocytes [1]", "value": "> 5.30"}
    ]},
    {"smiles": "Cc1c(C(=O)N[C@H](C(=O)NC(CC(=O)O)C(=O)COC(=O)c2c(Cl)cccc2Cl)C(C)C)n(C)c2ccccc12", "note": "(stereo partly shown) [Example 70, N-[N-(1,3-Dimethyl-indole-2-carbonyl)-Valinyl]-3-amino-5-(2,6-dichlorobenzoyl)oxy-4-oxo-pentanoic acid]", "values": [
      {"measurement": "pIC50", "setting": "granulocytes [1]", "value": "> 5.30"},
      {"measurement": "respiratory burst", "setting": "granulocytes [2]; [4]", "value": "partially maintained"},
      {"measurement": "respiratory burst", "setting": "granulocytes [2]; [5]", "value": "substantially maintained"},
      {"measurement": "Percentage of diploid granulocytes in whole blood", "setting": "[3]; 96 hours at room temperature", "value": 89, "unit": "%"},
      {"measurement": "Percentage of diploid granulocytes in whole blood", "setting": "[3]; time zero, 0 min", "value": 96, "unit": "%"}
    ]},
    {"smiles": "COC(=O)C[C@H](NC(=O)[C@H](C)NC(=O)[C@@H](NC(=O)OCc1ccccc1)C(C)C)C(=O)CF", "note": "[zVADfmk, reference compound] (Cbz-Val-Ala-Asp(OMe)-CH2F)", "values": [
      {"measurement": "effect on improving granulocyte survival", "setting": "granulocytes [1]; isolated granulocytes in culture, at 48 hours", "value": "weak effect"},
      {"measurement": "respiratory burst", "setting": "granulocytes [2]; no time stated", "value": "did not maintain the respiratory burst"}
    ]}
  ]
}
